Assay results from publication PMC8699473, “An Easily Expandable Multi-Drug LC-MS Assay for the Simultaneous Quantification of 57 Oral Antitumor Drugs in Human Plasma” (Cancers, 2021).

Experiment: Freeze-thaw stability in spiked pooled human plasma
Type: physicochemical

Row | SMILES | Freeze-Thaw Accuracy [%] (validation standard 2xLLOV) | Freeze-Thaw Accuracy [%] (validation standard LLOV) | Freeze-Thaw Accuracy [%] (validation standard MOV) | Freeze-Thaw Accuracy [%] (validation standard ULOV)
1 | C[C@]12CC[C@H](O)CC1=CC[C@@H]1[C@@H]2CC[C@]2(C)C(c3cccnc3)=CC[C@@H]12 [Abiraterone] | 104.5% | 105.9% | 101.5% | 100.2%
2 | CN(C)C/C=C/C(=O)Nc1cc2c(Nc3ccc(F)c(Cl)c3)ncnc2cc1O[C@H]1CCOC1 [Afatinib] | 100.0% | 93.5% | 96.1% | 95.0%
3 | O=C1CN2Cc3c(ccc(Cl)c3Cl)N=C2N1 [Anagrelide] | 96.5% | 92.8% | 93.8% | 99.6%
4 | CNC(=O)c1ccccc1Sc1ccc2c(/C=C/c3ccccn3)n[nH]c2c1 [Axitinib] | 108.3% | 102.1% | 105.4% | 104.0%
5 | COc1cc(N2CCC(N3CCN(C)CC3)CC2)ccc1Nc1ncc(Cl)c(Nc2ccccc2P(C)(C)=O)n1 [Brigatinib] | 98.7% | 111.4% | 95.5% | 97.9%
6 | COc1cc2nccc(Oc3ccc(NC(=O)C4(C(=O)Nc5ccc(F)cc5)CC4)cc3)c2cc1OC [Cabozantinib] | 99.6% | 90.2% | 102.2% | 95.0%
7 | Cc1cc(Nc2ncc(Cl)c(Nc3ccccc3S(=O)(=O)C(C)C)n2)c(OC(C)C)cc1C1CCNCC1 [Ceritinib] | 96.9% | 99.9% | 97.6% | 97.5%
8 | O=C(c1ccc(F)c(F)c1Nc1ccc(I)cc1F)N1CC(O)([C@@H]2CCCCN2)C1 [Cobimetinib] | 98.6% | 98.3% | 97.3% | 96.3%
9 | C[C@@H](Oc1cc(-c2cnn(C3CCNCC3)c2)cnc1N)c1c(Cl)ccc(F)c1Cl [Crizotinib] | 94.8% | 72.2% | 102.4% | 92.4%
10 | Cc1nc(Nc2ncc(C(=O)Nc3c(C)cccc3Cl)s2)cc(N2CCN(CCO)CC2)n1 [Dasatinib] | 99.1% | 108.8% | 99.1% | 102.2%
11 | CNC(=O)c1ccc(N2C(=S)N(c3ccc(C#N)c(C(F)(F)F)c3)C(=O)C2(C)C)cc1F [Enzalutamide] | 97.8% | 87.6% | 100.9% | 96.1%
12 | C#Cc1cccc(Nc2ncnc3cc(OCCOC)c(OCCOC)cc23)c1 [Erlotinib] | 100.9% | 113.3% | 100.4% | 102.0%
13 | COc1cc2ncnc(Nc3ccc(F)c(Cl)c3)c2cc1OCCCN1CCOCC1 [Gefitinib] | 97.6% | 92.4% | 97.8% | 97.1%
14 | Cc1ccc(NC(=O)c2ccc(CN3CCN(C)CC3)cc2)cc1Nc1nccc(-c2cccnc2)n1 [Imatinib] | 98.5% | 100.6% | 96.7% | 96.3%
15 | CS(=O)(=O)CCNCc1ccc(-c2ccc3ncnc(Nc4ccc(OCc5cccc(F)c5)c(Cl)c4)c3c2)o1 [Lapatinib] | 96.0% | 86.5% | 102.3% | 94.7%
16 | O=C(Nc1cnn2ccc(N3CCC[C@@H]3c3cc(F)ccc3F)nc12)N1CC[C@H](O)C1 [Larotrectinib] | 100.6% | 97.9% | 100.3% | 102.3%
17 | Nc1cccc2c1CN(C1CCC(=O)NC1=O)C2=O (centres unmarked) [Lenalidomide] | 104.4% | 91.0% | 97.3% | 96.8%
18 | COc1cc2nccc(Oc3ccc(NC(=O)NC4CC4)c(Cl)c3)c2cc1C(N)=O [Lenvatinib] | 102.5% | 111.6% | 98.4% | 103.0%
19 | C[C@H]1Oc2cc(cnc2N)-c2c(nn(C)c2C#N)CN(C)C(=O)c2ccc(F)cc21 [Lorlatinib] | 95.0% | 96.0% | 95.2% | 97.6%
20 | CO[C@@H]1[C@H](N(C)C(=O)c2ccccc2)C[C@H]2O[C@]1(C)n1c3ccccc3c3c4c(c5c6ccccc6n2c5c31)C(=O)NC4 [Midostaurin] | 95.9% | 100.6% | 94.6% | 97.4%
